In publication PMC5298035 (Clinical Pharmacology in Drug Development, 2016):
Structures can show the parent of a compound that is named as a salt. Where two headings read alike, the source gives them in different places.

Assays:
[1] = Phase 1 ethinyl estradiol/norethindrone interaction study: plasma PK; type: in vivo, human; conditions: for Geometric least-squares mean ratio, AUC0-∞ / Geometric least-squares mean ratio, AUClast / Geometric least-squares mean ratio, Cmax: (90% CI)
[2] = type: in vivo, human; conditions: ketoconazole + isavuconazole vs ketoconazole alone
Safety [3] = type: in vivo, human; conditions: ketoconazole study, by treatment period
[4] = type: in vivo, human
Safety [5] = type: in vivo, human; conditions: midazolam study, by treatment period
Safety [6] = type: in vivo, human; conditions: rifampin study, by treatment period
esterases = conditions: in the gut and blood; cited from earlier work
CYP3A4 = conditions: cited from earlier work
[7] = ethinyl estradiol, presence vs absence of isavuconazole
[8] = ethinyl estradiol: + isavuconazole vs alone
[9] = midazolam + isavuconazole vs midazolam alone, (90% CI)
[10] = midazolam, presence vs absence of isavuconazole
[11] = norethindrone, coadministration with isavuconazole vs alone
[12] = norethindrone: + isavuconazole vs alone

## C#C[C@]1(O)CC[C@H]2[C@@H]3CCc4cc(O)ccc4[C@H]3CC[C@@]21C [Ethinyl Estradiol, ethinyl estradiol]
[1]; [7]
  increase in mean AUC0-∞: 8%
  increase in mean AUClast: 10%
  increase in mean Cmax: 14%
[1]; [8]
  Geometric least-squares mean ratio, AUC0-∞: 108 (103, 113) %
  Geometric least-squares mean ratio, AUClast: 110 (104, 116) %
  Geometric least-squares mean ratio, Cmax: 114 (103, 126) %
[1]; female, human, plasma, po
  half-life: 20.5 h

## CC(=O)N1CCN(c2ccc(OCC3COC(Cn4ccnc4)(c4ccc(Cl)cc4Cl)O3)cc2)CC1 (stereo not shown) [Ketoconazole, ketoconazole, reference compound]
[2]; 90% CI 105, 134
  Geometric least-squares mean ratio, Cmax: 118%
[2]; 90% CI 112, 144
  Geometric least-squares mean ratio, AUCτ: 127%
Safety [3]
  subjects reporting TEAEs: no subjects

## Cc1ncc2n1-c1ccc(Cl)cc1C(c1ccccc1F)=NC2 [Midazolam, midazolam]
[4]; both, human, plasma, po, 3 mg
  AUC(0-inf): 46 ng·h/mL
  AUC(0-t): 44.5 ng·h/mL
  Cmax: 10.7 ng/mL
  Tmax: 1 h
  half-life: 5.4 h
[4]; midazolam 3 mg single oral dose alone, day 1, n = 23, arithmetic mean (SD)
  CL/F: 72.1 (24.6) L/h
[4]; [9]
  Geometric least-squares mean ratio, AUC0-∞: 203 (173, 238) %
  Geometric least-squares mean ratio, AUClast: 206 (175, 243) %
  Geometric least-squares mean ratio, Cmax: 172 (144, 205) %
[4]; [10]
  increase in mean AUC0-∞: 103%
  increase in mean AUClast: 106%
  increase in mean Cmax: 72%
Safety [5]
  subjects who experienced TEAEs: 9 n
  subjects with drug-related TEAEs: 6 n

## C#C[C@]1(O)CC[C@H]2[C@@H]3CCC4=CC(=O)CC[C@@H]4[C@H]3CC[C@@]21C [Norethindrone, norethindrone]
[1]; female, human, plasma, po
  Tmax: 1 h
  half-life: 13.1 h
[1]; [11]
  increase in mean AUC0-∞: 16%
  increase in mean AUClast: 16%
  increase in mean Cmax: 6%
[1]; [12]
  Geometric least-squares mean ratio, AUC0-∞: 116 (109, 123) %
  Geometric least-squares mean ratio, AUClast: 116 (109, 123) %
  Geometric least-squares mean ratio, Cmax: 106 (93, 120) %

## CO[C@H]1/C=C/O[C@@]2(C)Oc3c(C)c(O)c4c(O)c(c(/C=N/N5CCN(C)CC5)c(O)c4c3C2=O)NC(=O)/C(C)=C\C=C\[C@H](C)[C@H](O)[C@@H](C)[C@@H](O)[C@@H](C)[C@H](OC(C)=O)[C@@H]1C [Rifampin, rifampin, reference compound]
Safety [6]
  subjects who experienced TEAEs: 19 n
  subjects with drug-related TEAEs: 7 n

## CNCC(=O)OCc1cccnc1N(C)C(=O)OC(C)[n+]1cnn(C[C@](O)(c2cc(F)ccc2F)[C@@H](C)c2nc(-c3ccc(C#N)cc3)cs2)c1 (stereo partly shown) [isavuconazonium sulfate]
esterases
  hydrolysis of prodrug by esterases: rapid hydrolysis

## CCC(C)n1ncn(-c2ccc(N3CCN(c4ccc(OCC5COC(Cn6cncn6)(c6ccc(Cl)cc6Cl)O5)cc4)CC3)cc2)c1=O (stereo not shown) [itraconazole]
CYP3A4
  increase in exposure of midazolam on coadministration: up to 10 fold

## CC[C@@H]([C@H](C)O)n1ncn(-c2ccc(N3CCN(c4ccc(OC[C@@H]5CO[C@@](Cn6cncn6)(c6ccc(F)cc6F)C5)cc4)CC3)cc2)c1=O [posaconazole]
CYP3A4
  increase in exposure of midazolam on coadministration: up to 5 fold
